Assay results taken from patent publication US8815852B2, “Carbamoyloxy arylalkan arylpiperazine analgesics” (SK Biopharmaceuticals Co., Ltd., priority 2007, dated 2014).

What was measured:
male ICR mouse [1] = experiment: Acetic acid-induced writhing test in mouse; assay type: in vivo; details: Mus musculus; for ED50: unit not given (method doses in mg/kg), read-out: AA Writhing: ED50
In short: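 Male ICR mice (30 to 35 g) dosed orally at 10 mg/kg, then given 0.8% acetic acid i.p. 1 h later. Writhes counted for 10 min and expressed as % suppression against vehicle. ED50 derived by linear regression over at least three doses.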

5-HT2A receptor = 5-HT2A receptor (Rattus norvegicus (Rat), UniProt P14842); experiment: Binding to 5-HT2A receptor ([3H]-Ketanserin, rat cortical membranes); parameters: species or system Sprague-Dawley (SD) rats; details: for IC50: 0.5 nM [3H]-Ketanserin, read-out: 5-HT2A: IC50 (Concentration required to be 50% suppressed); for inhibition at 1 µM: 1 h, read-out: 5-HT2A: Suppression
5-HT2A receptor, sequence (P14842 whole entry): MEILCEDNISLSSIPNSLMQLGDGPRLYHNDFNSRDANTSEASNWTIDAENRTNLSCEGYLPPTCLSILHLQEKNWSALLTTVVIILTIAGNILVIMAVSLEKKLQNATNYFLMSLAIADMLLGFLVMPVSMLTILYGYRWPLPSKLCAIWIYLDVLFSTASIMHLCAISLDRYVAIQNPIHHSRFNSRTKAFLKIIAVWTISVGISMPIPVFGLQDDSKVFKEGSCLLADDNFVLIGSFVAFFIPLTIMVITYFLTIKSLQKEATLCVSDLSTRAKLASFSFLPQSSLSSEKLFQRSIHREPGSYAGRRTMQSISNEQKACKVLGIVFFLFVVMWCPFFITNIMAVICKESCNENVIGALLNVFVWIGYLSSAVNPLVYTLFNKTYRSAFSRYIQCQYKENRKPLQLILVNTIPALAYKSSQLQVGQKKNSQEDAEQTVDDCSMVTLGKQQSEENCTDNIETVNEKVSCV
Experimental: Binding to 5-HT2A Receptor
6-week-old Sprague-Dawley (SD) rats were anesthetized in an ether container for 5 minutes, brains were separated from rats, and cortical regions were then separated from the brains of the rats. The cortical regions of the rats were put into a Tris-HCl buffer solution (50 mM, pH 7.7) and homogenized, and the homogenate was centrifuged twice at 4° C. at a rotary speed of 50,000 g to obtain a precipitate (membrane protein). The precipitate was put into a buffer solution, and homogenized, which was used later as a protein source. 0.5 nM [3H]-Ketanserin was used as a radioactive isotope, and 10 uM serotonin was used to remove non-specific bindings. 25 ul of the compound, 100 ul of an aqueous radioactive isotope solution, and 100 ul of the protein source were put together, and kept at 25° C. for 1 hour. The resulting mixture was filtered with a membrane filter in a 96-well harvester when the 96-well plate reaction was completed. The competitivity of the compound to [3H]-Ketanserin was determined by taking the membrane filter and measuring the radioactivity in a scintillation counter, and an IC50 value was determined by measuring the increasing concentration of the compound. The specific reaction of the compound accounted for 90% or more. The general experiments were carried out according to the method by Leysen et al. (1982, Eur. J. Pharmacol).

male ICR mouse [2] = experiment: Formalin test - late phase in mouse; assay type: in vivo; details: po, unit inferred
Experimental: 3. Formalin Test—Late Phase in Mouse
A formalin test is another model for measuring an analgesic effect of drugs. […] These pain behaviors have a biphasic pattern, and therefore they are divided into an early-phase behavior within […] after the formalin administration; and a late-phase behavior up to 10 to 60 minutes. The medicinal effect observed in the formalin test-late phase means an analgesic effect of the test material in the inflammatory pain model, and also becomes a measure that may predict the medicinal effects in the neuropathic pain model (Vissers K et. al, 2003). A test material was orally administered to a male ICR mouse weighing 30 to 35 g. After 1 hour of the oral administration, 20 μl of a 2.5% formalin solution was subcutaneously injected into the planta surface of a mouse's hindlimb to induce pain. […] The analgesic effect of the test material is represented by the ‘suppression ratio of pain response’ {[(Pain response time of Vehicle-administered group−Pain response time of Test material-administered group)/(Pain response time of Vehicle-administered group)]×100%}, or ‘50% of Effective amount (ED50; an amount of a test material that is required to suppress 50% of pain behaviors) of Test material’. The ED50 (median effective dose) was determined by calculating the suppression ratio of pain response in at least three doses of test materials and subjecting to the linear regression.

5-HT1A receptor = 5-HT1A receptor (Rattus norvegicus (Rat), UniProt P19327); experiment: Binding to 5-HT1A receptor ([3H]-8-OH-DPAT, rat cortical membranes); parameters: species or system Sprague-Dawley (SD) rats; details: for IC50: 2 nM [3H]-8-OH-DPAT, read-out: 5-HT1A: IC50 (Concentration required to be 50% suppressed); for inhibition at 1 µM: 1 h, read-out: 5-HT1A: Suppression
5-HT1A receptor, sequence (P19327 whole entry): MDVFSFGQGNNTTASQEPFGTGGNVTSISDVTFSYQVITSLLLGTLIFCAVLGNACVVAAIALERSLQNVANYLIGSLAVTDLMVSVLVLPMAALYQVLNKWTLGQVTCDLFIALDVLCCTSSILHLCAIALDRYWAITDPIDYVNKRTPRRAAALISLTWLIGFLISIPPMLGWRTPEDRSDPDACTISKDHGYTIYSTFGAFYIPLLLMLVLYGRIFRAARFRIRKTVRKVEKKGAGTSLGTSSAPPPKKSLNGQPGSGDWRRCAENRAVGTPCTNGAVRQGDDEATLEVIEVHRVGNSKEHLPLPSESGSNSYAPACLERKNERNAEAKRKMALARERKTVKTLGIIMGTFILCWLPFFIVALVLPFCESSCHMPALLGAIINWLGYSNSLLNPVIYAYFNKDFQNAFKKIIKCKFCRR
Experimental: Binding to 5-HT1A Receptor
6-week-old Sprague-Dawley (SD) rats were anesthetized in an ether container for 5 minutes, brains were separated from rats, and cortical regions were then separated from the brains of the rats. The cortical regions of the rats were put into a Tris-HCl buffer solution (50 mM, pH 7.4) and homogenized, and the homogenate was centrifuged twice at 4? at a rotary speed of 50,000 g to obtain a precipitate (membrane protein). The precipitate was put into a buffer solution, and homogenized, which was used later as a protein source. 2 nM [3H]-8-OH-DPAT was used as a radioactive isotope, and 10 uM serotonin was used to remove non-specific bindings. 25 ul of the compound, 100 ul of an aqueous radioactive isotope solution, and 100 ul of the protein source were put together, and kept at 25° C. for 1 hour. The resulting mixture was filtered with a membrane filter in a 96-well harvester when the 96-well plate reaction was completed. The competitivity of the compound to [3H]-8-OH-DPAT was determined by taking the membrane filter and measuring the radioactivity of the membrane filter in a scintillation counter, and an IC50 value was determined by measuring the increasing concentration of the compound. The specific reaction of the compound accounted for 90% or more. The general experiments were carried out according to the method by Middlemiss et al. (1984, Eur. J. Pharmacol.).

male ICR mouse [3] = experiment: Formalin test - late phase in mouse; assay type: in vivo; details: ip, unit inferred

## NC(=O)OC(CCN1CCN(c2ccccc2)CC1)c1ccccc1 (stereo not drawn) [Example 1, Carbamic acid 1-phenyl-3-(4-phenyl-piperazin-1-yl)-propyl ester]
Male ICR mouse [1]; po
  ED50: 6.31 mg/kg
5-HT2A receptor
  IC50: 139 nM
Male ICR mouse [2]
  ED50: 8.43 mg/kg
5-HT1A receptor
  IC50: 434 nM

## NC(=O)OC(CCN1CCN(c2ccccc2)CC1)c1ccc(Cl)cc1 (stereo not drawn) [Example 2, Carbamic acid 1-(4-chloro-phenyl)-3-(4-phenyl-piperazin-1-yl)-propyl ester]
Male ICR mouse [1]; po
  ED50: 2.14 mg/kg
5-HT2A receptor
  inhibition at 1 µM: 84.6%
Male ICR mouse [2]
  ED50: 2.2 mg/kg
5-HT1A receptor
  inhibition at 1 µM: 64.6%

## NC(=O)OC(CCN1CCN(c2ccccc2)CC1)c1ccc(F)cc1 (stereo not drawn) [Example 6, Carbamic acid 1-(4-fluoro-phenyl)-3-(4-phenyl-piperazin-1-yl)-propyl ester]
Male ICR mouse [1]; po
  ED50: 2.79 mg/kg
5-HT2A receptor
  inhibition at 1 µM: 84.7%
Male ICR mouse [2]
  ED50: 4.45 mg/kg
5-HT1A receptor
  inhibition at 1 µM: 65.5%

## NC(=O)OC(CCN1CCN(c2ccccc2)CC1)c1ccc([N+](=O)[O-])cc1 (stereo not drawn) [Example 9, Carbamic acid 1-(4-nitro-phenyl)-3-(4-phenyl-piperazin-1-yl)-propyl ester]
Male ICR mouse [1]; po, 1 h, at 10 po (method: 10 mg/kg oral, 1 hour before acetic acid), read-out: AA Writhing: Suppression ratio of Pain response
  inhibition in vivo at 10 mg/kg: 91%
5-HT2A receptor
  inhibition at 1 µM: 88%
Male ICR mouse [2]
  ED50: 2.39 mg/kg
5-HT1A receptor
  inhibition at 1 µM: 81.4%

## NC(=O)OC(CCN1CCN(c2ccc([N+](=O)[O-])cc2)CC1)c1ccccc1 (stereo not drawn) [Example 16, Carbamic acid 1-phenyl-3-[4-(4-nitro-phenyl)-piperazin-1-yl]-propyl ester]
Male ICR mouse [1]; ip
  ED50: 2.92 mg/kg
5-HT2A receptor
  IC50: 2050 nM
Male ICR mouse [2]
  ED50: 11.6 mg/kg
5-HT1A receptor
  IC50: 6570 nM

## COc1ccc(N2CCN(CCC(OC(N)=O)c3ccccc3)CC2)cc1 (stereo not drawn) [Example 20, Carbamic acid 3-[4-(4-methoxy-phenyl)-piperazin-1-yl]-1-phenyl-propyl ester]
Male ICR mouse [1]; po
  ED50: 3.12 mg/kg
5-HT2A receptor
  IC50: 5850 nM
Male ICR mouse [2]
  ED50: 5.77 mg/kg
5-HT1A receptor
  IC50: 19800 nM

## NC(=O)OC(CCN1CCN(c2ccccc2F)CC1)c1ccccc1 (stereo not drawn) [Example 41, Carbamic acid 3-[4-(2-fluoro-phenyl)-piperazin-1-yl]-1-phenyl-propyl ester]
Male ICR mouse [1]; ip
  ED50: 0.34 mg/kg
5-HT2A receptor
  IC50: 110 nM
Male ICR mouse [2]
  ED50: 33.2 mg/kg
5-HT1A receptor
  IC50: 160 nM

## NC(=O)OC(CCCN1CCN(c2ccccc2)CC1)c1ccccc1 (stereo not drawn) [Example 94, Carbamic acid 1-phenyl-4-(4-phenyl-piperazin-1-yl)-butyl ester]
Male ICR mouse [1]; ip
  ED50: 0.25 mg/kg
Male ICR mouse [1]; po
  ED50: 3.61 mg/kg
5-HT2A receptor
  IC50: 514 nM
5-HT1A receptor
  IC50: 89.8 nM
Male ICR mouse [3]
  ED50: 2.79 mg/kg

## COc1ccc(N2CCN(CC[C@@H](OC(N)=O)c3ccccc3)CC2)cc1 [Example 102, (R)-carbamic acid 3-[4-(4-methoxy-phenyl)-piperazin-1-yl]-1-phenyl-propyl ester]
Male ICR mouse [1]; po
  ED50: 3.15 mg/kg
5-HT2A receptor
  IC50: 2780 nM
Male ICR mouse [2]
  ED50: 4.77 mg/kg
5-HT1A receptor
  IC50: 4310 nM

## COc1ccc(N2CCN(CC[C@H](OC(N)=O)c3ccccc3)CC2)cc1 [Example 106, (S)-carbamic acid 3-[4-(4-methoxy-phenyl)-piperazin-1-yl]-1-phenyl-propyl ester]
Male ICR mouse [1]; ip
  ED50: 1.43 mg/kg
Male ICR mouse [2]
  ED50: 12.5 mg/kg
